From patent publication US12723064B2, “Treating Alzheimer's disease” (Yeda Research and Development Co. Ltd., priority 2020, dated 2026)
“Also recorded” adds a separate entry of the source.

Assays:
APP-Tau binding = molecular target: T1, APP-Tau binding (Homo sapiens, UniProt P10636); assay: ELISA: peptide inhibition of Tau and APP protein binding; settings: peptides or combinations 1 μg/ml, four hours at RT before APP protein; anti Aß detection
T1 construct: purchased Bio-Legend US
Procedure: An ELISA plate (96 wells) was coated with Tau protein 1 μg/ml in bicarbonate PH=8.2 50 μl/well, then incubated overnight at 4° C. Peptides and their combinations were also incubated overnight at 4° C. in PBS 1 μg/ml. The next day, the plate was washed 3× with PBS and blocked with 3% BSA/PBS for two hours at RT. The plate was washed again 3× with PBS and peptides or their combinations 50 ul/well were added for four hours at RT. The plate was washed again 3× with PBS and APP protein, 1 μg/ml 50 μl/well was added for ON incubation at 4° C. The next day, the plate was washed 3× with PBS, following which anti Aß 1-16 (1 mg/ml) was added (1:500 dilution 50 μl/well) for two hours at RT. The plate was washed again and anti-mouse HRP antibodies (1:10,000 dilution in PBS 1% BSA) added at 50 μl/well. Color reaction was stopped with 50 μl/well of 1M H2S04 and read at 0.D. 450.

Tau = settings: previously reported (19); cited from earlier work
mice = assay: Y maze behavior test of APP1 peptide flexibly linked to Tau peptide; type: in vivo; settings: treated mice vs control treated mice (PBS), FIG. 6
Source text: The Y-maze test (45) consists of two trials, first “training” and second “retention”, separated by an inter-trial interval (ITI). Each arm of the Y-maze was equipped with a guillotine door that could be operated manually. The three identical arms were randomly designated as follows: the “start” (steam) arm, in which the mouse began to explore the maze (always open); the “Novel” arm, which was closed off during the first trial, but open in the second one; and the “other” arm (always open). The first (training) trial lasted five minutes and allowed the mouse to explore only two arms (“start” and “other”) of the maze. Access to the third (“Novel”) arm was blocked. The second trial (retention) was conducted after a two minute ITL. During this three minute trial, all three arms were accessible. The mouse was returned to the same starting arm and was allowed to explore all three arms. Retention was scored as a preferential index to the “Novel” arm, that was calculated as follows: time spent in the “Novel” arm minus the time spent in the old arm divided by the sum of time spent in both arms (46).
An additional experiment was carried out testing the effects of the APP1 peptide flexibly linked to the TAU peptide on behavior as tested in the Y maze.

hippocampus = assay: Number of elements and % of area in the hippocampus (Table 3); type: in vivo, mice
Procedure: Mice were sacrificed (trans-cardially punctured, and saline-perfused). The right brain hemisphere of each mouse was stored at −70° C. to quantify Aβ levels. The left hemispheres were fixed (4% paraformaldehyde) and prepared for paraffin blocks which were cut into six micron sagittal sections and used for histological staining and examination. Sagittal brain sections were stained with Congo red dye (Sigma-Aldrich) and visualized by fluorescence microscopy. Quantification of amyloid depositions was done for the whole hippocampal area in a blinded fashion using Imaging Research software from the National Institutes of Health in an unbiased stereological approach.

T1 sequence (P10636 1-441 isoform P10636-8): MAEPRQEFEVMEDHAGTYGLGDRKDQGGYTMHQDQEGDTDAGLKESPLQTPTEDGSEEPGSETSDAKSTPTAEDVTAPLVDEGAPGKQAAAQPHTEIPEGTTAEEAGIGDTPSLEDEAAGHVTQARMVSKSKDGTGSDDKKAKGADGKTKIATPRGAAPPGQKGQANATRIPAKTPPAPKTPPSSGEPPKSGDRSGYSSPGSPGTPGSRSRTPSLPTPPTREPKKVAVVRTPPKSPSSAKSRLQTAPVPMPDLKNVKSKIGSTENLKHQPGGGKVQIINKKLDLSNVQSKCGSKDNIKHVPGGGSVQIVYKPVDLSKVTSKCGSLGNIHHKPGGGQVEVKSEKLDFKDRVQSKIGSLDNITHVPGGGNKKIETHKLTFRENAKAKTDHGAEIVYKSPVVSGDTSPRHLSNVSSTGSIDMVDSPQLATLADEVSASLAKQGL

| Sequence | inhibition of APP protein binding to Tau coated plate (APP-Tau binding) | binding to Tau (Tau) | Y maze preferential index (cognitive ability) (mice) | % of area (hippocampus) [%] | Number of elements (hippocampus) |
| --- | --- | --- | --- | --- | --- |
| ATVIVITLVMLKKKQYTS [APP2, reference compound] | not inhibited | bind Tau |  |  |  |
| GLGDRKDQGGYTMHQD [Tau1, synthetic peptide from N-terminal end of Tau protein (residues 19-34)] | not inhibited |  |  |  |  |
| HFQKAKERLEAKHRERMSQVMRE [APP1, synthetic peptide from APP protein, APP1 (390-412)] | significant but partial inhibition; also recorded: significant, but partial inhibition |  |  |  |  |
| HFQKAKERLEAKHRERMSQVMREGGGGSGGGGSGGGGSGLGDRKDQGGYTMHQD (example of a peptide which comprises an APP derived peptide linked by a flexible peptide linker to a TAU derived peptide) |  |  | improve | 1.9 | 112 |
